Test system: SEM cells
Assay: cell viability relative to DMSO control; higher = less cytotoxic
Details: 48 h
Method in brief: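 Cells were incubated for 48 h at 37°C before CellTiter-Glo One luminescence was read. The cells were NOMO1 or SEM (500 cells/well) or P12-Ichikawa (1000 cells/well) leukemia cells, adapted for at least four passages in each medium and seeded in 1536-well plates (5 μl). Dosing used library compounds in DMSO applied by pin over 11 threefold points, 47 μM to 0.79 nM. Viability is the per-plate percentage of DMSO wells, with cell-free wells as background.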

[1] = HPLM + 10% dialyzed FBS, 0.000781 µM
[2] = HPLM + 10% dialyzed FBS, 0.00234 µM
[3] = HPLM + 10% dialyzed FBS, 0.00702 µM
[4] = HPLM + 10% dialyzed FBS, 0.0211 µM
[5] = HPLM + 10% dialyzed FBS, 0.0632 µM
[6] = HPLM + 10% dialyzed FBS, 0.19 µM
[7] = HPLM + 10% dialyzed FBS, 0.569 µM
[8] = HPLM + 10% dialyzed FBS, 1.71 µM
[9] = HPLM + 10% dialyzed FBS, 5.12 µM
[10] = HPLM + 10% dialyzed FBS, 15.4 µM
[11] = HPLM + 10% dialyzed FBS, 46.1 µM
[12] = RPMI 5 mM glucose + 10% FBS, 0.000781 µM
[13] = RPMI 5 mM glucose + 10% FBS, 0.00234 µM
[14] = RPMI 5 mM glucose + 10% FBS, 0.00702 µM
[15] = RPMI 5 mM glucose + 10% FBS, 0.0211 µM
[16] = RPMI 5 mM glucose + 10% FBS, 0.0632 µM
[17] = RPMI 5 mM glucose + 10% FBS, 0.19 µM
[18] = RPMI 5 mM glucose + 10% FBS, 0.569 µM
[19] = RPMI 5 mM glucose + 10% FBS, 1.71 µM
[20] = RPMI 5 mM glucose + 10% FBS, 5.12 µM
[21] = RPMI 5 mM glucose + 10% FBS, 15.4 µM
[22] = RPMI 5 mM glucose + 10% FBS, 46.1 µM
[23] = RPMI 5 mM glucose + 10% dialyzed FBS, 0.000781 µM
[24] = RPMI 5 mM glucose + 10% dialyzed FBS, 0.00234 µM
[25] = RPMI 5 mM glucose + 10% dialyzed FBS, 0.00702 µM
[26] = RPMI 5 mM glucose + 10% dialyzed FBS, 0.0211 µM
[27] = RPMI 5 mM glucose + 10% dialyzed FBS, 0.0632 µM
[28] = RPMI 5 mM glucose + 10% dialyzed FBS, 0.19 µM
[29] = RPMI 5 mM glucose + 10% dialyzed FBS, 0.569 µM
[30] = RPMI 5 mM glucose + 10% dialyzed FBS, 1.71 µM
[31] = RPMI 5 mM glucose + 10% dialyzed FBS, 5.12 µM
[32] = RPMI 5 mM glucose + 10% dialyzed FBS, 15.4 µM
[33] = RPMI 5 mM glucose + 10% dialyzed FBS, 46.1 µM

Compound	cell viability [1] [%]	cell viability [2] [%]	cell viability [3] [%]	cell viability [4] [%]	cell viability [5] [%]	cell viability [6] [%]	cell viability [7] [%]	cell viability [8] [%]	cell viability [9] [%]	cell viability [10] [%]	cell viability [11] [%]	cell viability [12] [%]	cell viability [13] [%]	cell viability [14] [%]	cell viability [15] [%]	cell viability [16] [%]	cell viability [17] [%]	cell viability [18] [%]	cell viability [19] [%]	cell viability [20] [%]	cell viability [21] [%]	cell viability [22] [%]	cell viability [23] [%]	cell viability [24] [%]	cell viability [25] [%]	cell viability [26] [%]	cell viability [27] [%]	cell viability [28] [%]	cell viability [29] [%]	cell viability [30] [%]	cell viability [31] [%]	cell viability [32] [%]	cell viability [33] [%]
CCNC(=O)c1noc(-c2cc(C(C)C)c(O)cc2O)c1-c1ccc(CN2CCOCC2)cc1	90.6	97.5	92.4	103	31.8	21.1	20.2	20.9	19.6	17.3	14.2	95.2	102	102	102	27.1	21.6	19.8	19.6	19.4	14.1	7.66	101	95.7	89.5	99.5	36.1	24.9	26.4	22.6	18.6	19.2	11.2
COc1ccc(-c2cc3c(C)nc(N)nc3n([C@H]3CC[C@H](OCCO)CC3)c2=O)cn1	99.4	91.8	84.6	77.2	70.5	64.9	47	32.6	24.3	6.37	1	105	105	97.8	99.8	79.8	62.1	55.3	29.1	29.6	9.56	1.08	79.7	86.1	75.4	75.3	69.7	58.9	46.4	34.7	29.3	14.6	1.67
Cc1cccc(Nc2nc(N[C@@H]3CCCC[C@@H]3N)ncc2C(N)=O)c1	109	107	112	104	107	118	114	88.6	44	30.9	32.3	66.2	80.1	78	79.7	69.8	89.4	87.1	74.2	33.8	11.5	14.5	95.7	126	104	112	103	114	96.2	81.1	25.6	23.3	25
CN(C)Cc1cccc(N/C(=C2\C(=O)Nc3cc(C(=O)N(C)C)ccc32)c2ccccc2)c1	75.8	88.4	100	98.6	112	101	108	97.2	90.7	55	2.72	92.4	87.5	102	104	109	114	104	102	71.2	7.07	1.12	74.2	103	96.5	108	103	110	111	115	85.6	26.6	1.38
COc1ccccc1N1CCN(CC(O)COc2cccc3ccccc23)CC1 (stereo unspecified)	62.9	116	124	131	136	119	111	108	121	109	88.8																						
CC(C)N(CCCNC(=O)Nc1ccc(C(C)(C)C)cc1)C[C@H]1O[C@@H](n2cc(Br)c3c(N)ncnc32)[C@H](O)[C@@H]1O	87.3	99.8	96.6	98.8	105	101	85.1	98.4	104	72.4	18	83.1	98.3	115	104	114	109	106	104	77.4	77.2	17.1	67.2	92.6	98.9	92.5	89.7	91.4	87.7	80.2	83.5	78.9	26.3
COCCNCCCn1c(C(=O)CF)c(-c2ccc(C)cc2)c2c(N)ncnc21	109	113	105	101	101	105	107	99.7	87	71.7	56.4												106	102	111	104	114	103	96.7	68.2	72.5	71.9	54.5
COc1cc([S+](C)(=O)[O-])ccc1Nc1nc2ccc(-c3ccc(NC(=O)[C@H](C)c4ccc(F)cc4)cc3)cn2n1	90.4	87.8	102	89.2	107	102	94.8	41.9	52.1	52.3	43.1	98	117	92.3	86.1	124	108	104	41.2	41.4	34.6	31	88.4	112	108	90.4	136	99.1	98.1	53.9	50	48.2	43
